Laboratory results from patent US5212165A, “Method for rehabilitating the vasorelaxant action of the coronary arteries impaired through atherosclerosis or hypercholesterolemia employing an ACE inhibitor” (E. R. Squibb & Sons, Inc., priority 1989, dated 1993).

Assays:
[1] = test system: alpha-adrenoceptor (isolated iliac arteries); test: Contractile responses to phenylephrine of isolated iliac arteries from cynomolgus monkeys; design: species or system cynomolgus (Macaca fascicularis) monkeys
Text: (§1) Twenty-four male cynomolgus (Macaca fascicularis) monkeys were divided into four groups of six animals each. During the course of the study, one of the control monkeys was sacrificed due to ill health unrelated to the study. Each group was fed a different diet for six months. The control group ate a normal diet of monkey biscuit. The cholesterol group ate a specially formulated monkey diet containing cholesterol. The cholesterol +low captopril group ate the cholesterol diet supplemented with captopril (50 mg/kg divided into two daily doses). The cholesterol+high captopril group ate the cholesterol diet and a higher total dose of captopril (100 mg/kg divided into two daily doses).
(§2) The monkeys were sedated with an intramuscular injection of ketamine (10 mg/kg), then anesthetized with pentobarbital (25 mg/kg). The iliac arteries were carefully dissected, cleaned of surrounding connective tissue, and refrigerated overnight for use the following day.
(§3) On the day of the experiment, three iliac rings (3 mm wide) from each animal were cut and mounted for isometric force recording. Each ring was attached to a micrometer for the control of muscle length and to a Grass FT.03 force transducer and Grass 7D recorder. The rings were placed in warm (37° C.), oxygenated, physiological salt solution (PSS) of the following composition (in mM): 140.0 NaCl, 4.7 KCl, 1.2 MgSO4, 1.6 CaCl2, 1.2 NaH2 PO4, 5.6 D-glucose, 2.0 2-(N-morpholino)propanesulfonic acid (MOPS, pH 7.4 at 37° C.), and 0.02 Na2 -ethylenediaminetetraacetic acid (EDTA). The rings were stretched to a preload of 5 g during a 2 hour equilibration period, then stimulated with 1 μM phenylephrine to test for viability and relaxed with 100 nM acetylcholine to test for endothelial function. Stock solutions of phenylphrine, acetylcholine, propranolol, and sodium nitroprusside were prepared daily in water; nifedipine stock solutions were prepared daily in ethanol.
Alpha-adrenoceptor and endothelial cell function were examined in the third ring from each monkey. In the presence of 0.1 μM propranolol, a cumulative concentration-response curve to phenylephrine was obtained, then the phenylephrine was washed out of the baths and the rings were allowed to relax completely. The rings were subsequently contracted with an EC50 concentration of phenylephrine (1 μM) and, following stabilization of the contraction, the rings were treated with increasing concentrations of acetylcholine, followed by 100 nM sodium nitroprusside.
(§4) Data are presented as mean±SEM. The IC50 and EC50 values were estimated by linearly interpolating from the concentration-response curves. The EC50 values for each ring were used to determine the means for each treatment group.
Phenylephrine concentration-response curves were obtained in iliac rings from all groups of monkeys.

[2] = test system: bovine aortic endothelial cells; conditions: cited from earlier work
[3] = test system: K^+ depolarized arteries (iliac rings); test: Contractile responses to CaCl2 in K^+ depolarized iliac rings from cynomolgus monkeys; design: species or system cynomolgus (Macaca fascicularis) monkeys
Text: as §1, §2, §3
(§5) The voltage-dependent calcium channels were studied in one ring from each monkey. The protocol consisted of depleting the cells of calcium by exposing the rings to a Ca-free, EGTA (ethylene glycol-bis(β-aminoethyl ether)N,N,N',N'-tetraacetic acid) PSS (omission of CaCl2 and addition of 0.1 mM EGTA) for 30 minutes. The EGTA was subsequently removed from the tissues with three washes of Ca-free PSS (simple omission of CaCl2). Following that, the rings were bathed in Ca-free, K^+ PSS (omission of CaCl2 and isoosmotic substitution of KCl for NaCl such that the KCl concentration was 110 mM) for 30 minutes. A CaCl2 concentration-response curve was obtained by replacing the bath solution with K^+ PSS containing incremental increases in CaCl2 concentration (0.1, 0.3, 0.5, 1.0, 1.25, 1.6, and 2.5 mM). The maximal contractions, in response to 2.5 mM CaCl2, were then relaxed incrementally with nifedipine. Another iliac ring (fade control) from each monkey was subjected to the same protocol with the exception that the strips were allowed to remain contracted and the nifedipine concentration-response curve was not obtained. Some fade of the CaCl2 -induced force was observed over the time period required for the nifedipine concentration-response curve. This fade was accounted for by decreasing the amount of relaxation observed upon addition of nifedipine by the amount of fade observed in the time control from the same monkey.
as §4
Concentration-response curves to CaCl2 in K^+ depolarized rings were obtained following depletion of tissue calcium by repeated washing in Ca-free PSS first with, then without, EGTA. There were no differences in the responses to CaCl2 among any of the treatment groups (Table 1).

[4] = test system: voltage-dependent calcium channels (iliac rings); test: Relaxation responses to nifedipine of CaCl2-contracted iliac rings from cynomolgus monkeys; design: species or system cynomolgus (Macaca fascicularis) monkeys; conditions: cholesterol-fed monkeys, with captopril
Text: as §1, §2, §3, §5
Data are presented as mean±SEM. The IC50 and EC50 values were estimated by linearly interpolating from the concentration-response curves. […]

rat aortic rings = conditions: Hartich et al, Shultz et al, cited from earlier work
isolated rat hearts = conditions: van Gilst et al; cited from earlier work
[5] = test system: vascular relaxation in response to EN-D (ACh) and EN-I (Na nitroprusside) agonists; conditions: oral; rats; cited from earlier work
[6] = test system: patients with Raynaud's phenomenon; conditions: cited from earlier work
guinea pig or rat lungs = conditions: guinea pig lungs; cited from earlier work
[7] = Cholesterol + High Captopril (100 mg/kg daily, six months), Mean ± SEM
[8] = Cholesterol + Low Captopril (50 mg/kg daily, six months), Mean ± SEM
[9] = cholesterol-fed monkeys, with captopril

Question: With C[C@H](CS)C(=O)N1CCC[C@H]1C(=O)O [captopril, 1-[(2S)-3-mercapto-2-methylpropionyl]-L-proline] as the compound, how does the “Max Force (phenylephrine-induced contraction)” value [1, 7] read?
Answer: 19.2 ± 2.2 g

Question: And the “Max Force (phenylephrine-induced contraction)” value [1, 8]?
Answer: 18.4 ± 2.8 g

Question: And the EC50 at 100 mg/kg ([1]; Macaca fascicularis, Cholesterol + High Captopril (100 mg/kg daily, six months), Mean ± SEM, read-out: EC50 (phenylephrine-induced contraction))?
Answer: 1.3 ± 0.6 µM

Question: What about the EC50 at 50 mg/kg ([1]; Macaca fascicularis, Cholesterol + Low Captopril (50 mg/kg daily, six months), Mean ± SEM, read-out: EC50 (phenylephrine-induced contraction)) of the same compound?
Answer: 1 ± 0.2 µM

Question: And the “effect on in vitro response of iliac arteries to phenylephrine” value [1, 9]?
Answer: neither cholesterol nor captopril affected

Question: And the “release of prostacyclin or EDRF induced by bradykinin” value ([2]; captopril 10 mu.K (so in the source))?
Answer: did not affect the release

Question: And the “release of EDRF (direct)” value [2]?
Answer: ineffective as releasers of EDRF

Question: What about the “Max Force (CaCl2)” value [3, 7] of the same compound?
Answer: 16.8 ± 1.1 g

Question: What about the “Max Force (CaCl2)” value [3, 8] of the same compound?
Answer: 16.5 ± 1.8 g

Question: And the EC50 at 100 mg/kg ([3]; Macaca fascicularis, Cholesterol + High Captopril (100 mg/kg daily, six months), Mean ± SEM)?
Answer: 150 ± 30 µM

Question: What about the EC50 at 50 mg/kg ([3]; Macaca fascicularis, Cholesterol + Low Captopril (50 mg/kg daily, six months), Mean ± SEM) of the same compound?
Answer: 140 ± 40 µM

Question: What about the “effect on in vitro response of iliac arteries to CaCl2” value [3, 9] of the same compound?
Answer: neither cholesterol nor captopril affected

Question: And the “effect on in vitro response of iliac arteries to nifedipine” value [4]?
Answer: neither cholesterol nor captopril affected

Question: What about the “endothelium dependent relaxation of normal rat aortic rings” value (rat aortic rings; in vitro) of the same compound?
Answer: enhance endothelium dependent relaxation

Question: And the “effect of acetylcholine in rat aortic rings after captopril feeding alone” value (rat aortic rings; without cholesterol)?
Answer: potentiate the effects of acetylcholine

Question: What about the coronary vasodilatory mechanism (isolated rat hearts) of the same compound?
Answer: potentiates the effect of locally increased BK

Question: What about the “vascular relaxations in response to EN-D (ACh) and EN-I (Na nitroprusside) agonists” value [5] of the same compound?
Answer: differentially affected vascular relaxations

Question: And the marked subjective improvement ([6]; 20 patients with primary or secondary Raynaud's phenomenon, Trubestein et al)?
Answer: 14 cases

Question: What about the “incidence or severity of peripheral vasospasm” value ([6]; Raynaud's with hypertension secondary to scleroderma, Coffman) of the same compound?
Answer: does not decrease the incidence or severity of peripheral vasospasm

Question: And the digital circulation ([6]; one patient, Miyazaki et al)?
Answer: improved a patient's digital circulation

Question: What about the “benefit in Raynaud's phenomenon and chronic leg ulceration” value ([6]; one patient, Rustin et al 1989) of the same compound?
Answer: no benefit

Question: And the cutaneous blood flow ([6]; p.o., 15 patients, placebo-controlled, double-blind cross-over, Rustin et al 1987)?
Answer: significantly improved cutaneous blood flow

Question: What about the “frequency or severity of attacks” value ([6]; p.o., 15 patients, Rustin et al 1987) of the same compound?
Answer: no effect on frequency or severity of attacks

Question: And the “frequency and severity of ischemic attacks” value ([6]; patients with Raynaud's disease, Tosi et al)?
Answer: significantly decreased the frequency and the severity of ischemic attacks

Question: What about the “ischemic attacks in patients with scleroderma” value ([6]; patients with scleroderma, Tosi et al) of the same compound?
Answer: did not affect the attacks

Question: And the “effect on removal of endothelin by guinea pig lungs” value (guinea pig or rat lungs)?
Answer: without being affected by captopril
